{"source": "patent US9994533B2", "about": "“Method of preparing ATG's analogue, and the application of ATG and it's analogue” (Longhua Hospital Shanghai University of Traditional Chinese …, priority 2016, dated 2018)", "key": {"PP2AB": {"molecular_target": "T1, PP2AB (Homo sapiens, UniProt P62714)", "T1 construct": "endogenous in cells; host or cells: 293T", "T1 sequence (P62714 whole entry)": "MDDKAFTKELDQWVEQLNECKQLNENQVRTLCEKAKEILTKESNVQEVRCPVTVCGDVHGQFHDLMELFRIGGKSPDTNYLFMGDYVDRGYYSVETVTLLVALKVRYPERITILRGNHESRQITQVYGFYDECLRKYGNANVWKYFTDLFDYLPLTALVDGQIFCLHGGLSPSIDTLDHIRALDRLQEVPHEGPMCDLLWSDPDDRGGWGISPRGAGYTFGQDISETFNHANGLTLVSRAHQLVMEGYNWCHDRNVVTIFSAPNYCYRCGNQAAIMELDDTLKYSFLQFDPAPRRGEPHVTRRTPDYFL", "test": "DARTS-western blot of ATG binding to PP2A in 293T cells", "conditions": "ATG 100, 300, 1000 μM, pronase 1:1000, FIG. 1", "description": "We used ATG to stimulate 293T cells. […] The applied ATG was formulated at 3 different concentrations: 100 μM, 300 μM, 1000 μM. So there are 5 groups of Western Blot: blank group (without addition of pronase), DMSO (pronase 1:1000), ATG 100 μM (pronase 1:1000), ATG 300 μM (pronase 1:1000), ATG 1000 μM (Pronase 1:1000). […] While pronase can digest proteins, it digests more ATG-unbinding proteins than ATG-binding proteins. […] This method is called DARTS.\nIn FIG. 1: DARTS-western blot confirmed the binding of ATG to PP2AB; PP2A had three structural units, and ATG bound to the catalytic unit. The catalyst unit of the protein called PP2AB, the gene called PPP2CB."}, "[1]": {"system": "diabetic kidney disease mice", "test": "Proteinuria in STZ-induced diabetic nephropathy mice", "format": "in vivo", "conditions": "40 mg/kg oral once daily", "description": "When the mice were 6 weeks of age, streptozotocin (STZ)-induced diabetic nephropathy models were started by tail vein injection. The specific method is: STZ in accordance with the amount of 50 mg/kg is injected in tail vein. 72 hours after the injection, determine whether the modeling is successful by determining the level of blood glucose and urine. When the blood glucose level is more than 16 mmol/L and urine glucose level is between +++ and ++++, the model was considered successful. After 10 weeks of STZ injection, ATG was orally administered at a dose of 40 mg/kg once daily. The control group was given the same volume of DMSO (dimethyl sulfoxide) orally. Treatment was for 8 weeks. Urine protein levels were measured in each group. The number of the mice in each group is 10 in Table 3. […] ACEI: angiotensin converting enzyme inhibitors; ARBs: angiotensin receptor blockers."}, "NOX4 [2]": {"system": "NOX4", "test": "NOX4 protein expression in glomeruli of STZ-eNOS−/− mice (Western Blot)", "format": "in vivo", "conditions": "for NOX4/GAPDH mean: glomeruli, Western Blot", "source_text": "The detection method of Western Blot and mRNA used in the present embodiment is a detection method commonly used by person skilled in the art, and the specific detection method is described in “Molecular Biology Laboratory Manual” (People's Military Medical Press, published in 2011 Jun. 1). 2. ATG can decrease NOX4's protein and mRNA expression in glomeruli of STZ-eNOS^−/− mice."}, "NOX4 gene": {"system": "NOX4 gene", "test": "NOX4 mRNA expression in glomeruli of STZ-eNOS−/− mice (RT-PCR)", "format": "in vivo", "conditions": "FIG. 5", "source_text": "The detection method of Western Blot and mRNA used in the present embodiment is a detection method commonly used by person skilled in the art, and the specific detection method is described in “Molecular Biology Laboratory Manual” (People's Military Medical Press, published in 2011 Jun. 1). Further, the mRNA of the glomeruli was extracted and subjected to RT-PCR."}, "NOX4 [3]": {"system": "NOX4", "test": "NOX4 protein expression in human immortal podocytes under high glucose (Western blot)", "format": "cell-based", "conditions": "ATG 10 μmol/L", "source_text": "The detection method of Western Blot and mRNA used in the present embodiment is a detection method commonly used by person skilled in the art, and the specific detection method is described in “Molecular Biology Laboratory Manual” (People's Military Medical Press, published in 2011 Jun. 1). 3.1 Western blot and Realtime PCR confirmed that ATG in human immortal podocytes can inhibit the overexpression of NOX4 caused by high glucose stimuli, see table 5 and FIG. 6. The expression of NOX4 in the total protein, membrane protein and mitochondrial protein of human immortal podocytes was detected in the experiment. […] The meanings of the symbols in FIG. 6 are as follows: HG: high glucose (glucose […]); T: total protein; Tmeb cell membrane protein; Mito: mitochondrial protein."}, "NOX4 [4]": {"system": "NOX4", "test": "NOX4 protein expression in mouse primary endothelial cells under high glucose (Western blot)", "format": "cell-based", "source_text": "(§1) The detection method of Western Blot and mRNA used in the present embodiment is a detection method commonly used by person skilled in the art, and the specific detection method is described in “Molecular Biology Laboratory Manual” (People's Military Medical Press, published in 2011 Jun. 1). 3.2 Western blot and Realtime PCR confirmed that ATG could inhibit the overexpression of NOX4 in mouse's primary endothelial cells. The dose of 1 and 10 μmol/L corresponds to the last two bands."}, "NOX4 mRNA": {"system": "NOX4 mRNA", "test": "NOX4 mRNA expression in mouse primary endothelial cells under high glucose (Realtime PCR)", "format": "cell-based", "conditions": "FIG. 9", "source_text": "as §1"}, "NOX": {"system": "NOX", "test": "NOX-related ROS induced by high glucose (NADPH oxidative activity, luminescence)", "format": "cell-based, human", "description": "The human immortal podocytes were divided into 6 groups: blank group, high glucose group (30 mM), high glucose+10 μMATG, high glucose+20 μMATG, high glucose+50 μMATG, high glucose+100 μMATG.\nThe effects of ATG on NOX producing ROS were observed by measuring the oxidative activity of NADPH (reduced coenzyme II): The […] were washed twice with HBSS (Hanks balanced salt solution), during which the cell culture dish was placed on ice. The cells were scraped with frozen HBSS containing protease inhibitors, then homogenated. The protein concentration was measured and calculated. 30 μg protein was added to each well and 25 μM […] (Santa Cruz) and 200 μM NADPH (Cayman Chemical) were also added. After staying in the dark room for 10 minutes at 37° C., the luminescence of each well was measured. Results: There was significant difference of ROS between high glucose group and normal group (P<0.05). The different concentration of ATG (10 μM, 20 μM, 50 μM, 100 μM) could reduce the amount of ROS induced by NOX. See Table 7 and FIG. 10 for the details."}}}
{"smiles": "COc1cc(C[C@H]2C(=O)OC[C@@H]2Cc2ccc(OC)c(OC)c2)ccc1O", "note": "[ATG, Arctigenin]", "values": [{"measurement": "PP2A binding (DARTS-western blot)", "setting": "PP2AB", "value": "PP2A binding increased with the increasing concentration of ATG"}, {"measurement": "proteinuria (urine protein level)", "setting": "[1]; Model group - ATG (STZ mice), 0 week", "value": 0.98}, {"measurement": "proteinuria (urine protein level)", "setting": "[1]; Model group - ATG (STZ mice), 1 week", "value": 0.95}, {"measurement": "proteinuria (urine protein level)", "setting": "[1]; Model group - ATG (STZ mice), 2 week", "value": 1.10}, {"measurement": "proteinuria (urine protein level)", "setting": "[1]; Model group - ATG (STZ mice), 3 week", "value": 0.66}, {"measurement": "proteinuria (urine protein level)", "setting": "[1]; Model group - ATG (STZ mice), 4 week", "value": 0.66}, {"measurement": "proteinuria (urine protein level)", "setting": "[1]; Model group - ATG (STZ mice), 5 week", "value": 0.37}, {"measurement": "proteinuria (urine protein level)", "setting": "[1]; Model group - ATG (STZ mice), 6 week", "value": 0.22}, {"measurement": "proteinuria (urine protein level)", "setting": "[1]; Model group - ATG (STZ mice), 7 week", "value": 0.18}, {"measurement": "proteinuria (urine protein level)", "setting": "[1]; Model group - ATG (STZ mice), 8 week", "value": 0.18}, {"measurement": "proteinuria (urine protein level)", "setting": "[1]; Normal group - ATG, 0 week", "value": 0.12}, {"measurement": "proteinuria (urine protein level)", "setting": "[1]; Normal group - ATG, 1 week", "value": 0.11}, {"measurement": "proteinuria (urine protein level)", "setting": "[1]; Normal group - ATG, 2 week", "value": 0.18}, {"measurement": "proteinuria (urine protein level)", "setting": "[1]; Normal group - ATG, 3 week", "value": 0.12}, {"measurement": "proteinuria (urine protein level)", "setting": "[1]; Normal group - ATG, 4 week", "value": 0.16}, {"measurement": "proteinuria (urine protein level)", "setting": "[1]; Normal group - ATG, 5 week", "value": 0.18}, {"measurement": "proteinuria (urine protein level)", "setting": "[1]; Normal group - ATG, 6 week", "value": 0.12}, {"measurement": "proteinuria (urine protein level)", "setting": "[1]; Normal group - ATG, 7 week", "value": 0.14}, {"measurement": "proteinuria (urine protein level)", "setting": "[1]; Normal group - ATG, 8 week", "value": 0.13}, {"measurement": "effect on proteinuria", "setting": "[1]; STZ mice, 8 weeks", "value": "significantly reduces proteinuria"}, {"measurement": "effect on proteinuria compared with ACEI/ARBs", "setting": "[1]; STZ mice, 8 weeks", "value": "superior to the ACEI/ARBs"}, {"measurement": "NOX4/GAPDH mean", "setting": "NOX4 [2]; Normal group-ATG", "value": 0.13}, {"measurement": "NOX4/GAPDH mean", "setting": "NOX4 [2]; STZ-ATG", "value": 0.14}, {"measurement": "NOX4's protein expression in glomerular, versus untreated group", "setting": "NOX4 [2]; STZ-eNOS mice administered with ATG", "value": "significantly less than that of the untreated group"}, {"measurement": "mRNA expression of NOX4 gene in glomeruli", "setting": "NOX4 gene", "value": "significantly reduced"}, {"measurement": "T-NOX4/β-actin mean", "setting": "NOX4 [3]; High glucose-ATG, total protein, podocytes", "value": 1.13}, {"measurement": "expression of NOX4 in total protein, membrane protein and mitochondrial protein", "setting": "NOX4 [3]; high glucose, FIG. 6", "value": "can inhibit the expression of NOX4 in the above three kinds of structures"}, {"measurement": "NOX4/B-Tubulin Mean", "setting": "NOX4 [4]; ATG 1 uM", "value": 0.18}, {"measurement": "NOX4/B-Tubulin Mean", "setting": "NOX4 [4]; ATG 10 uM", "value": 0.12}, {"measurement": "overexpression of NOX4 mRNA induced by high glucose", "setting": "NOX4 mRNA", "value": "inhibited the overexpression of NOX4 mRNA"}, {"measurement": "NOX-related ROS (luminescence), mean", "setting": "NOX; HG + 10 μM ATG", "value": 1030}, {"measurement": "NOX-related ROS (luminescence), mean", "setting": "NOX; HG + 20 μM ATG", "value": 864}, {"measurement": "NOX-related ROS (luminescence), mean", "setting": "NOX; HG + 50 μM ATG", "value": 794}, {"measurement": "NOX-related ROS (luminescence), mean", "setting": "NOX; HG + 100 μM ATG", "value": 832}]}
